Reference: patent US20260169002A1, “PROFILING NEWLY-SYNTHESIZED GLYCOPROTEINS AS MOLECULAR SIGNATURES OF INJURY IN DONOR ORGANS” (Carnegie Mellon University, priority 2022, published 2026)

Key:
rat lungs = assay: Bioorthogonal azide labeling of NewS-glycoproteins during EVLP, histological detection; details: 100 μM Ac4GalNAz vs 0.1% DMSO in Steen solution, 4-hour EVLP
Description: (§1) Ex vivo lung perfusion (EVLP) in rats: EVLP was performed using a commercially available rodent EVLP system (IL-2 Isolated Perfused Rat or Guinea Pig Lung System; Harvard Apparatus, Holliston, MA) as described elsewhere (Noda et al., 2014, Eur J Cardio-Thorac Surg., 45:e54-60; and (Noda et al., 2021, Sci Rep., 11:12265). Acellular Steen solution (XVIVO Perfusion AB, Denver, CO) was used for perfusate and lungs were medicated with methylprednisolone (SOLU-MEDROL®; Pfizer, Inc., New York, NY) and cephalosporin (Cefazolin; WG Critical Care LLC, Paramus, NJ) equally in all experimental groups using EVLP. […] Pulmonary artery pressure, peak airway pressure, and airway flow were monitored continuously, and dynamic lung compliance and pulmonary vascular resistance were also analyzed. […]
Immunostaining: Rehydrated rat or human lung sections were incubated with antigen unmasking solution at 95° C. for 20 minutes. […] For quantification, three random fields were taken in each lung section. Azide >biotin intensities for each field taken were measured by Fiji software (Schindelin et al., supra). Laminin channels were converted to 8-bit and intensities were measured for Laminin coverage areas. […]

human lungs = assay: Bioorthogonal azide labeling during EVLP, histological detection in human lung sections; details: Ac4GalNAz vs vehicle in perfusate, 6 hour EVLP
Description: Immunostaining: Rehydrated rat or human lung sections were incubated with antigen unmasking solution at 95° C. for 20 minutes. After cooling down, the sections were reacted with Alkyne-PEG4-biotin (Click Chemistry Tools, TA105) under copper-catalyzed cycloaddition (CuAAC) conditions (Rostovtsev et al., 2002, Angewandte Chemie., 114:2708-2711), or reacted without copper catalyst as a control. All samples were blocked with 1% bovine serum albumin (BSA) in PBS for 20 minutes and incubated with a primary antibody against Laminin (Abcam, Cambridge, UK; ab11575) at a dilution of 1:500. The slides were then stained with streptavidin conjugated to ALEXA FLUOR®-647 (Invitrogen, S21374) and Donkey-anti-Rabbit IgG conjugated to ALEXA FLUOR®-488 (Invitrogen, A32790) at a dilution of 1:500. All slides were mounted with DAPI-containing Fluoromount solution (SouthernBiotech, Birmingham, AL; 0100-20). Single-field images were taken using confocal microscopy and stitched images were taken by EVOS FL Auto 2 Imaging System (Thermo Fisher Scientific, Waltham, MA). For quantification, three random fields were taken in each lung section. Azide >biotin intensities for each field taken were measured by Fiji software (Schindelin et al., supra). Laminin channels were converted to 8-bit and intensities were measured for Laminin coverage areas. […]

post-EVLP lungs = assay: LC-MS/MS proteomic analysis of Input and Eluate samples of lungs with or without Ac4GalNAz during EVLP; design: species or system rat; details: before affinity enrichment
Description: Chemoselective enrichment of azide-tagged proteins: Cellular protein extracts of the lungs were reacted with Alkyne-PEG4-desthiobiotin (Click Chemistry Tools, 1109) under CuAAC conditions. Proteins were precipitated with four volumes of ice-cold acetone at −20° C. overnight to remove unreacted Alkyne-PEG4-desthiobiotin. The protein pellets were air-dried and re-dissolved in 2% SDS in PBS (pH 7.40), and then saved as Input samples. Following quantification by BCA, an aliquot of each Input sample containing 1.7 mg of protein was introduced to 75 μL streptavidin-conjugated resin (Thermo Fisher Scientific; 53117) for desthiobiotinylated protein pull-down. Following a 3-hour binding period, Supernatants were collected and the resins were washed 7 times for 15 minutes each with 2% SDS, 40 mM additional NaCl in PBS (pH 7.40). The pulled-down proteins were eluted with 30 mM biotin in 2% SDS, 40 mM additional NaCl in PBS (pH 7.40) (Eluting buffer) at room temperature for 1 hour. […] Protein concentrations of the Eluate samples were determined by BCA assay, and the eluates were then stored at −80° C. for SDS-PAGE and proteomic analysis. […]
Samples were analyzed using a UPLC-MS/MS system consisting of an Easy-nLC 1200 ultra-high-pressure liquid chromatography system and an Orbitrap Fusion Lumos mass spectrometer (Thermo Fisher Scientific). […]

healthy rat lungs = assay: Effect of Ac4GalNAz probe on lung graft quality during EVLP (morphology, physiology); details: 100 μM Ac4GalNAz vs vehicle perfusion, monitored every hour, 4-hour EVLP
Description: as §1
Airspace morphology evaluation: Following EVLP, the lungs receiving Ac4GaIN Az or vehicle control administration were fixed in Formalin, embedded in paraffin, and sectioned to a thickness of 5 μm. […] Horizontal and vertical mean linear intercepts of each image were measured by Fiji software (Schindelin et al., 2012, Exp Rev Resp Med., 11:119-128), following a protocol described elsewhere (Crowley et al., 2019, BMC Pulm Med., 19:206) The mean values of horizontal and vertical mean linear intercepts of the three images were calculated as the estimated airspace size average of each lung section.

Effect on overall lung proteome (Input samples, Pearson correlation, hierarchical clustering) (post-EVLP lungs): did not significantly alter
Lung compliance during EVLP (healthy rat lungs): no significant differences
Pulmonary vascular resistance during EVLP (healthy rat lungs): no significant differences
Structure (SMILES): CC(=O)OC[C@H]1OC(OC(C)=O)[C@H](NC(=O)CN=[N+]=[N-])[C@@H](OC(C)=O)[C@H]1OC(C)=O (some centres unmarked) [Ac4GalNAz, N-azidoacetylgalactosamine-tetraacylated]
Azide labeling of lung tissue (azide→biotin fluorescence) (rat lungs): robust and specific azide labeling
Azide labeling of lung tissue (azide→biotin fluorescence) (human lungs): also was observed
